{"source": "patent US20220288004A1", "about": "“TREATMENT AND PREVENTION OF AGING RELATED-DISEASE AND/OR AGING BY THE INHIBITION OF SPHINGOLIPIDS” (ECOLE POLYTECHNIQUE FEDERALE DE LAUSANNE (EPFL), priority 2019, published 2022)", "test_system": "sphingolipid de novo synthesis pathway", "test": "Measurement of sphingolipids in tissues of aged mice treated with myriocin", "format": "in vivo, mouse", "method": "To examine whether a causal relationship could underlie the correlation between SphPC1 and muscle mass and function, it was tested whether inhibition of sphingolipid de novo biosynthesis pathway could protect against age-related muscle dysfunction. Aged (18-month-old) C57Bl/6JRj mice were treated for 5 months on chow diet with myriocin, a specific inhibitor of SPT, the first and rate-limiting enzyme of the sphingolipid de novo synthesis pathway, and whose expression in skeletal muscle was negatively correlated with muscular fitness in BXDs.\nAnimals. Young (2-month-old) and aged (18-month-old) C57Bl/6JRj mice were purchased from Janvier Labs. EchoMRI measuring the fat and lean body mass, were measured before and after the treatment. The dose of myriocin was 0.4 mg/kg/3 times a week. Myriocin (Enzo Life Sciences, Farmingdale, N.Y.) was first dissolved in DMSO which was then mixed with PBS so that each mouse received 1.5 μL DMSO per injection. Animals were fed on a standard chow diet. All animals were housed in micro-isolator cages in a room illuminated from 7:00 AM to 7:00 PM with ad libitum access to diet and water. All the animal experiments are authorized by animal license 2890.1 and 3341 in Canton of Vaud, Switzerland.\nMeasurement of sphingolipids. Plasma (100 μL) and weighed tissue samples (20-60 mg) were transferred to 2 ml Safe-Lock PP-tubes, and extracted. In brief, samples were homogenized using two 6 mm steal beads on a Mixer Mill (Retsch, Haan, GER; 2×10 sec, frequency 30/s) in 700 μL MTBE/MeOH (3/1, v/v) containing 500 μmol butylated hydroxytoluene, 1% acetic acid, and 200 μmol of internal standards (IS, d18:1/17:0 ceramide, d18:1/17:0 sphingomyelin, Avanti Polar Lipids, Alabaster, Ala., USA) per sample. Total lipid extraction was performed under constant shaking for 30 min at RT. After addition of 140 μL dH2O and further incubation for 30 min on RT, samples were centrifuged at 1,000×g for 15 min to establish phase separation. 500 μL of the upper, organic phase were collected and dried under a stream of nitrogen. Lipids were resolved in 700 μL 2-propanol/methanol/water (7/2.5/1, v/v/v) for UPLC-MS analysis. Remaining tissues were dried, solubilized in NaOH (0.3 N) at 65° C. for 4 h and the protein content was determined using Pierce™ BCA reagent (Thermo Fisher Scientific, Waltham, Mass., USA) and BSA as standard.\nChromatographic separation was modified after Knittelfelder et al. using an ACQUITY-UPLC system (Waters Corporation), equipped with a Luna omega C18 column (2.1×50 mm, 1.6 μm; Phenomenex) starting a 20 min linear gradient with 80% solvent A (MeOH/H2O, 1/1, v/v; 10 mM ammonium acetate, 0.1% formic acid, 8 μM phosphoric acid). The column compartment was kept on 50° C. A EVOQ Elite™ triple quadrupole mass spectrometer (Bruker) equipped with an ESI source was used for detection of lipids in positive ionization mode. Lipid species were analyzed by selected reaction monitoring (ceramide, [M+H]+ to m/z 264.3, 22 eV, 60 ms; sphingomyelin, [M+H]+ to m/z 184.1, 20 eV, 40 ms; resolution 0.7 Q1/Q3). Data acquisition was done by MS Workstation (Bruker). Data were normalized for recovery, extraction-, and ionization efficacy by calculating analyte/IS ratios (AU) and expressed as AU/g tissue or AU/mL plasma.\nMeasurement of deoxysphingolipids. […] An aliquot (50 μL) of homogenate was dried under air and resuspended in RIPA buffer for protein quantification using BCA assay (BCA Protein Assay, Lambda, Biotech Inc., US). […]", "key": {"[1]": {"settings": "quadriceps of aged myriocin treated mice"}}}
{"smiles": "CCCCCCC(=O)CCCCCCC=CCC(O)C(O)C(N)(CO)C(=O)O", "note": "(centres unmarked) [myriocin, 2-Amino-3,4-dihydroxy-2-(hydroxymethyl)-14-oxoicos-6-enoic acid]", "values": [{"measurement": "total ceramide contents of skeletal muscle", "setting": "aged (18-month-old) C57Bl/6JRj mice, myriocin 0.4 mg/kg i.p. 3 times per week, 5 months, vs DMSO", "value": "reduced"}, {"measurement": "skeletal muscle deoxysphingolipid contents", "setting": "aged mice, myriocin 0.4 mg/kg i.p. 3 times per week, 5 months, smaller effect than on canonical sphingolipids", "value": "reduced"}, {"measurement": "sphinganine (SA) level in skeletal muscle", "setting": "[1]", "value": "lower levels"}, {"measurement": "sphingosine (SO) level in skeletal muscle", "setting": "[1]", "value": "lower levels"}, {"measurement": "individual ceramide species in skeletal muscle", "setting": "quadriceps, aged mice, myriocin 0.4 mg/kg i.p. 3 times per week, 5 months", "value": "reduced"}]}
